The text below walks through data of ChEMBL document CHEMBL1158217, “Tetranortriterpenoids from Ruagea glabra” (1996).

The structures appear in SMILES notation.

This assay deals with Spodoptera frugiperda. Put plainly: Antifeedant activity against Spodoptera frugiperda final instar larvae at 100 ppm after 18 hrs by glass fiber disk method. The arrangement: unit not given here. It is filed as functional.
Molecule `COC(=O)C[C@H]1C(C)(C)[C@H](OC(C)=O)[C@H]2C(=O)[C@]1(C)[C@H]1CC[C@]3(C)[C@@H](CC(=O)O[C@H]3c3ccoc3)[C@]13O[C@H]23` [XYLOCARPIN] registered an Activity of 77.8. The molecule `C=C1[C@@H]2CC[C@@]3(C)[C@H](c4ccoc4)OC(=O)C[C@]13O[C@H]1CC(=O)C(C)(C)[C@H](CC(=O)OC)[C@]12C` [METHYLANGOLENSATE] returned an Activity of 66.4. As for `C/C=C(\C)C(=O)O[C@H]1C(C)(C)[C@H](CC(=O)OC)[C@]2(C)C(=O)[C@@]1(O)[C@H]1O[C@]13[C@@H]1CC(=O)O[C@@H](c4ccoc4)[C@]1(C)CC[C@H]23` [RUAGEANIN B], the Activity is 86.3. Next, `COC(=O)C[C@H]1C(C)(C)[C@H](OC(=O)C(C)C)[C@H]2C(=O)[C@]1(C)[C@H]1CC[C@]3(C)[C@@H](CC(=O)O[C@H]3c3ccoc3)[C@]13O[C@H]23` [RUAGEANIN A]: 72.6.
